# Results published in PubChem BioAssay (NCI).
#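 Protocol summary: plate cells (96-well), add compound at 5 concentrations, incubate 48 h, interpolate endpoints linearly. At the GI50, growth is halved. TGI marks complete inhibition of growth.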
# Tests used:
# Experiment in all cases: NCI anticancer screen, dose series, 48 h
# HS 578T breast = tested on: HS 578T breast
# A498 renal = tested on: A498 renal
# NCI-H226 lung = tested on: NCI-H226 lung
# KM12 colon = tested on: KM12 colon
# MOLT-4 leukemia = tested on: MOLT-4 leukemia
# SF-268 CNS = tested on: SF-268 CNS
# LOX IMVI melanoma = tested on: LOX IMVI melanoma
# MALME-3M melanoma = tested on: MALME-3M melanoma
# DU-145 prostate = tested on: DU-145 prostate
# HOP-62 NSCLC = tested on: HOP-62 NSCLC
# OVCAR-4 ovarian = tested on: OVCAR-4 ovarian
# SN12C renal = tested on: SN12C renal
# CCRF-CEM leukemia = tested on: CCRF-CEM leukemia
# HOP-92 NSCLC = tested on: HOP-92 NSCLC
# EKVX NSCLC = tested on: EKVX NSCLC
# ACHN renal = tested on: ACHN renal
# HCC-2998 colon = tested on: HCC-2998 colon
# SR leukemia = tested on: SR leukemia
# RXF 393 renal = tested on: RXF 393 renal
# SF-295 CNS = tested on: SF-295 CNS
# U251 CNS = tested on: U251 CNS
# UACC-257 melanoma = tested on: UACC-257 melanoma
# CAKI-1 renal = tested on: CAKI-1 renal
# COLO 205 colon = tested on: COLO 205 colon
# SNB-75 CNS = tested on: SNB-75 CNS
# HL-60(TB) leukemia = tested on: HL-60(TB) leukemia
# OVCAR-8 ovarian = tested on: OVCAR-8 ovarian
# SK-MEL-2 melanoma = tested on: SK-MEL-2 melanoma
# HCT-15 colon = tested on: HCT-15 colon
# SF-539 CNS = tested on: SF-539 CNS
# UO-31 renal = tested on: UO-31 renal
# NCI-H23 lung = tested on: NCI-H23 lung
# HCT-116 colon = tested on: HCT-116 colon
# OVCAR-5 ovarian = tested on: OVCAR-5 ovarian
# IGROV1 ovarian = tested on: IGROV1 ovarian
# M14 melanoma = tested on: M14 melanoma
# MCF7 breast = tested on: MCF7 breast
# MDA-MB-231 breast = tested on: MDA-MB-231 breast
# PC-3 prostate = tested on: PC-3 prostate
# A549 NSCLC = tested on: A549 NSCLC
# HT29 colon = tested on: HT29 colon
# T-47D breast = tested on: T-47D breast
# NCI-H522 lung = tested on: NCI-H522 lung
# TK-10 renal = tested on: TK-10 renal
# NCI-H460 lung = tested on: NCI-H460 lung
# SK-OV-3 ovarian = tested on: SK-OV-3 ovarian
# SK-MEL-5 melanoma = tested on: SK-MEL-5 melanoma
# BT-549 breast = tested on: BT-549 breast
# MDA-MB-435 = tested on: MDA-MB-435
# SK-MEL-28 melanoma = tested on: SK-MEL-28 melanoma
# SW-620 colon = tested on: SW-620 colon
# RPMI-8226 leukemia = tested on: RPMI-8226 leukemia
# 786-0 renal = tested on: 786-0 renal
# UACC-62 melanoma = tested on: UACC-62 melanoma
# SNB-19 CNS = tested on: SNB-19 CNS
# NCI/ADR-RES ovarian = tested on: NCI/ADR-RES ovarian
smiles,measurement,setting,value
CCCCCc1ccc(S(=O)(=O)Nc2cc(-c3csc(NC(=O)CN4CCN(C)CC4)n3)ccc2OC)cc1,GI50,HS 578T breast,919 nM
same,TGI,HS 578T breast,2190 nM
same,GI50,A498 renal,5410 nM
same,TGI,A498 renal,12200 nM
same,GI50,NCI-H226 lung,6890 nM
same,TGI,NCI-H226 lung,17600 nM
same,GI50,KM12 colon,1210 nM
same,TGI,KM12 colon,2920 nM
same,GI50,MOLT-4 leukemia,1490 nM
same,TGI,MOLT-4 leukemia,4540 nM
same,GI50,SF-268 CNS,898 nM
same,TGI,SF-268 CNS,1920 nM
same,GI50,LOX IMVI melanoma,866 nM
same,TGI,LOX IMVI melanoma,1630 nM
same,GI50,MALME-3M melanoma,788 nM
same,TGI,MALME-3M melanoma,1520 nM
same,GI50,DU-145 prostate,1620 nM
same,TGI,DU-145 prostate,4960 nM
same,GI50,HOP-62 NSCLC,915 nM
same,TGI,HOP-62 NSCLC,1860 nM
same,GI50,OVCAR-4 ovarian,1310 nM
same,TGI,OVCAR-4 ovarian,4100 nM
same,GI50,SN12C renal,1140 nM
same,TGI,SN12C renal,2770 nM
same,GI50,CCRF-CEM leukemia,1240 nM
same,TGI,CCRF-CEM leukemia,3920 nM
same,GI50,HOP-92 NSCLC,857 nM
same,TGI,HOP-92 NSCLC,1960 nM
same,GI50,EKVX NSCLC,1920 nM
same,TGI,EKVX NSCLC,9160 nM
same,GI50,ACHN renal,957 nM
same,TGI,ACHN renal,1980 nM
same,GI50,HCC-2998 colon,986 nM
same,TGI,HCC-2998 colon,1970 nM
same,GI50,SR leukemia,993 nM
same,TGI,SR leukemia,2620 nM
same,GI50,RXF 393 renal,717 nM
same,TGI,RXF 393 renal,1500 nM
same,GI50,SF-295 CNS,993 nM
same,TGI,SF-295 CNS,2010 nM
same,GI50,U251 CNS,901 nM
same,TGI,U251 CNS,1910 nM
same,GI50,UACC-257 melanoma,850 nM
same,TGI,UACC-257 melanoma,1640 nM
same,GI50,CAKI-1 renal,869 nM
same,TGI,CAKI-1 renal,1970 nM
same,GI50,COLO 205 colon,821 nM
same,TGI,COLO 205 colon,1680 nM
same,GI50,SNB-75 CNS,1070 nM
same,TGI,SNB-75 CNS,4470 nM
same,GI50,HL-60(TB) leukemia,1070 nM
same,TGI,HL-60(TB) leukemia,2340 nM
same,GI50,OVCAR-8 ovarian,1280 nM
same,TGI,OVCAR-8 ovarian,3650 nM
same,GI50,SK-MEL-2 melanoma,867 nM
same,TGI,SK-MEL-2 melanoma,1650 nM
same,GI50,HCT-15 colon,976 nM
same,TGI,HCT-15 colon,2090 nM
same,GI50,SF-539 CNS,859 nM
same,TGI,SF-539 CNS,1610 nM
same,GI50,UO-31 renal,736 nM
same,TGI,UO-31 renal,1610 nM
same,GI50,NCI-H23 lung,1840 nM
same,TGI,NCI-H23 lung,7120 nM
same,GI50,HCT-116 colon,876 nM
same,TGI,HCT-116 colon,1650 nM
same,GI50,OVCAR-5 ovarian,1540 nM
same,TGI,OVCAR-5 ovarian,5350 nM
same,GI50,IGROV1 ovarian,1190 nM
same,TGI,IGROV1 ovarian,3510 nM
same,GI50,M14 melanoma,887 nM
same,TGI,M14 melanoma,1700 nM
same,GI50,MCF7 breast,937 nM
same,TGI,MCF7 breast,1950 nM
same,GI50,MDA-MB-231 breast,992 nM
same,TGI,MDA-MB-231 breast,2340 nM
same,GI50,PC-3 prostate,1800 nM
same,TGI,PC-3 prostate,7420 nM
same,GI50,A549 NSCLC,1430 nM
same,TGI,A549 NSCLC,5480 nM
same,GI50,HT29 colon,871 nM
same,TGI,HT29 colon,1680 nM
same,GI50,T-47D breast,921 nM
same,TGI,T-47D breast,2060 nM
same,GI50,NCI-H522 lung,889 nM
same,TGI,NCI-H522 lung,1700 nM
same,GI50,TK-10 renal,1410 nM
same,TGI,TK-10 renal,5100 nM
same,GI50,NCI-H460 lung,924 nM
same,TGI,NCI-H460 lung,1770 nM
same,GI50,SK-OV-3 ovarian,5140 nM
same,TGI,SK-OV-3 ovarian,13000 nM
same,GI50,SK-MEL-5 melanoma,892 nM
same,TGI,SK-MEL-5 melanoma,1610 nM
same,GI50,BT-549 breast,2520 nM
same,TGI,BT-549 breast,11200 nM
same,GI50,MDA-MB-435,878 nM
same,TGI,MDA-MB-435,1640 nM
same,GI50,SK-MEL-28 melanoma,873 nM
same,TGI,SK-MEL-28 melanoma,1620 nM
same,GI50,SW-620 colon,867 nM
same,TGI,SW-620 colon,1690 nM
same,GI50,RPMI-8226 leukemia,925 nM
same,TGI,RPMI-8226 leukemia,2160 nM
same,GI50,786-0 renal,884 nM
same,TGI,786-0 renal,1640 nM
same,GI50,UACC-62 melanoma,969 nM
same,TGI,UACC-62 melanoma,1980 nM
same,GI50,SNB-19 CNS,1260 nM
same,TGI,SNB-19 CNS,3740 nM
same,GI50,NCI/ADR-RES ovarian,2370 nM
same,TGI,NCI/ADR-RES ovarian,9890 nM
